Measured values taken from publication PMC5706701, “Development of a homogenous high-throughput assay for inositol hexakisphosphate kinase 1 activity” (PLoS ONE, 2017).
Where a name gives a salt, the structure may show the parent alone. Read-outs that look alike come from different tables or passages of the source.

Biological target: T1, Human IP6K1 (Homo sapiens, UniProt Q92551)
T1 construct: GST (N, cleaved yes); made in house; host or cells: C43 E. coli, pGEX-6P-2
Test: IP6K1 high-throughput screen of the Sigma LOPAC (ADP-Glo Max, single point);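 further: final compound concentration 10µM in 5% DMSO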
Format: biochemical

[1] = LOPAC single-point screen, ADP-Glo Max raw signal per well
[2] = LOPAC single-point screen, Z-score from raw signal with plate average and StDev
[3] = LOPAC single-point screen, Z-score against plate average and StDev
[4] = Sigma LOPAC single-point screen, ADP-Glo Max raw signal per well
[5] = Sigma LOPAC single-point screen, Z-score from plate average and StDev
[6] = LOPAC single-point screen, ADP-Glo Max luminescence raw signal per well
[7] = LOPAC single-point screen, Z-score relative to plate average and StDev
[8] = LOPAC single-point screen, Z-score from plate average and StDev

T1 sequence (Q92551 whole entry): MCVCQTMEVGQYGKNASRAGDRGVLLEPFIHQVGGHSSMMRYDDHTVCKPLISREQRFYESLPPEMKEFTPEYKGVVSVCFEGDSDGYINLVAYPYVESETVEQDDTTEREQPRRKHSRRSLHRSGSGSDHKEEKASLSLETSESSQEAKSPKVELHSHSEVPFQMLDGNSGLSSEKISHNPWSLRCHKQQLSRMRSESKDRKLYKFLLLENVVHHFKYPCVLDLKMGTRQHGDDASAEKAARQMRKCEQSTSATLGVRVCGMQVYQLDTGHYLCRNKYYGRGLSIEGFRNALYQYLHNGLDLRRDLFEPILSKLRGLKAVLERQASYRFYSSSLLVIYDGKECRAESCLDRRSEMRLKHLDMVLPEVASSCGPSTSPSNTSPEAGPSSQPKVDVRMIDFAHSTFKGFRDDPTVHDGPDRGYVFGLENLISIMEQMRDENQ

## Cn1c(=O)[nH]c2ncn(C)c2c1=O [1,7-Dimethylxanthine]
[1]
  Raw Signal: 53863
[2]
  Z-score: -0.2648

## N[C@@H](Cc1ccc(F)cc1)C(=O)O [p-Fluoro-L-phenylalanine]
[1]
  Raw Signal: 55466
[3]
  Z-score: 0.06072

## CC(C)NNC(=O)c1ccncc1.O=P(O)(O)O [Iproniazid phosphate]
[4]
  Raw Signal: 60567
[5]
  Z-score: 1.037

## CC1=C(/C=C/C(C)=C/C=C/C(C)=C/C(=O)O)C(C)(C)CCC1 [Retinoic acid]
[6]
  Raw Signal: 50659
[7]
  Z-score: -1.042

## CC(=O)NNC(=O)N1Cc2ccccc2Oc2ccc(Cl)cc21 [SC 19220]
[4]
  Raw Signal: 57783
[5]
  Z-score: 0.3418

## O=C(O)c1cccnc1C(=O)O [Quinolinic acid]
[6]
  Raw Signal: 51489
[7]
  Z-score: -0.881

## C[N+]1(C)CCN(c2ccccc2)CC1.[I-]
[1]
  Raw Signal: 55993
[3]
  Z-score: 0.1677

## COC(=O)C1=C(C)NC(C)=C(C(=O)OCCN(C)Cc2ccccc2)C1c1cccc([N+](=O)[O-])c1 (stereo not shown) [Nicardipine hydrochloride]
[6]
  Raw Signal: 66364
[8]
  Z-score: 2.011

## N[C@@H](Cc1c[nH]c2ccc(O)cc12)C(=O)O [5-Hydroxy-L-tryptophan]
[4]
  Raw Signal: 60622
[5]
  Z-score: 1.108

## CC(C)NCC(O)c1cc(O)cc(O)c1.CC(C)NCC(O)c1cc(O)cc(O)c1.O=S(=O)(O)O (stereo not shown) [Metaproterenol hemisulfate]
[1]
  Raw Signal: 55094
[3]
  Z-score: 0.1177

## Cc1[nH]c2ccc(O)cc2c1CCN.O=C(O)/C=C\C(=O)O [2-Methyl-5-hydroxytryptamine maleate]
[1]
  Raw Signal: 56336
[3]
  Z-score: 0.3264

## O=C(O)CCCCCCCC(=O)O [Azelaic acid]
[4]
  Raw Signal: 63677
[5]
  Z-score: 1.015

## CC(CCc1ccccc1)NC(C)C(O)c1ccc(O)cc1 (stereo not shown) [Nylidrin hydrochloride]
[1]
  Raw Signal: 56232
[3]
  Z-score: 0.3089

## CN(C)CCC=C1c2ccccc2C=Cc2ccccc21 [Cyclobenzaprine hydrochloride]
[4]
  Raw Signal: 63136
[5]
  Z-score: 0.9199

## O=C(c1cc(O)c(O)c([N+](=O)[O-])c1)c1ccccc1F [Ro 41-0960]
[4]
  Raw Signal: 58523
[5]
  Z-score: 0.4855

## O=C(O)[C@@H]1[C@H](C(=O)O)[C@H]2CC[C@@H]1O2 [Endothall]
[4]
  Raw Signal: 58370
[5]
  Z-score: 0.6505

## CC(C)NC(C)Cc1ccc(I)cc1 (stereo not shown) [Iofetamine hydrochloride]
[1]
  Raw Signal: 55439
[3]
  Z-score: 0.1757

## OC[C@H]1O[C@@H](n2cnc3c(Nc4ccccc4)ncnc32)[C@H](O)[C@@H]1O [N6-Phenyladenosine]
[1]
  Raw Signal: 55025
[2]
  Z-score: -0.194

## CC(COc1ccc(/C=C/c2ccccc2)cc1)[N+](C)(C)C.[I-] (stereo not shown)
[6]
  Raw Signal: 63739
[8]
  Z-score: 1.499

## OC[C@H]1O[C@@H](n2cnc3c(NCCc4ccccc4)ncnc32)[C@H](O)[C@@H]1O [N6-2-Phenylethyladenosine]
[6]
  Raw Signal: 52095
[7]
  Z-score: -0.7633

## CO/N=C(\C(=O)N[C@@H]1C(=O)N2C(C(=O)O)=C(COC(C)=O)CS[C@H]12)c1csc(N)n1 [Cefotaxime sodium]
[6]
  Raw Signal: 53540
[7]
  Z-score: -0.7702

## C[C@H]1c2cccc(O)c2C(=O)C2=C(O)[C@]3(O)C(=O)C(C(N)=O)=C(O)[C@@H](N(C)C)[C@@H]3[C@@H](O)[C@@H]21 [Doxycycline hydrochloride]
[6]
  Raw Signal: 51944
[7]
  Z-score: -0.6546

## c1ccc2c(c1)[I+]c1ccccc1-2 [Diphenyleneiodonium chloride]
[4]
  Raw Signal: 59663
[5]
  Z-score: 0.9131

## COc1cc(CNC(=O)CCCCCCC(C)C)ccc1O [Dihydrocapsaicin]
[1]
  Raw Signal: 52937
[2]
  Z-score: -0.2447

## Oc1cc2c(cc1O)[C@H]1c3ccccc3CN[C@@H]1CC2 (racemic) [Dihydrexidine hydrochloride]
[1]
  Raw Signal: 53851
[2]
  Z-score: -0.2673

## Cc1nc2sccn2c(=O)c1CCN1CCC(=C(c2ccc(F)cc2)c2ccc(F)cc2)CC1 [Ritanserin]
[1]
  Raw Signal: 56847
[3]
  Z-score: 0.1599

## C=CCN1C[C@H](C)N([C@H](c2ccc(C(=O)N(CC)CC)cc2)c2cccc(OC)c2)C[C@H]1C [SNC80]
[1]
  Raw Signal: 54916
[2]
  Z-score: -0.2152

## CC1=C(CC(=O)O)c2cc(F)ccc2/C1=C\c1ccc(S(C)(=O)=O)cc1 [Sulindac sulfone]
[1]
  Raw Signal: 56423
[3]
  Z-score: 0.07756

## COc1cc2c(CCNC(C)=O)c[nH]c2cc1Cl [6-Chloromelatonin]
[4]
  Raw Signal: 61765
[5]
  Z-score: 0.6784

## COc1cc(CC(=O)O)ccc1O [4-Hydroxy-3-methoxyphenylacetic acid]
[4]
  Raw Signal: 58602
[5]
  Z-score: 0.6976

## CC(C)(C)c1cc(C=C(C#N)C#N)cc(C(C)(C)C)c1O [Tyrphostin A9]
[1]
  Raw Signal: 55633
[3]
  Z-score: -0.07593

## CNCC(O)c1ccc(O)c(O)c1.Cl (racemic) [(±)-Epinephrine hydrochloride]
  Raw Signal: 49297
  Z-score: -1.192

## CN(C(=O)Cc1ccc(Cl)c(Cl)c1)C(CN1CCCC1)c1cccc(OCC(=O)O)c1.Cl (stereo not shown) [ICI 204,448 hydrochloride]
[1]
  Raw Signal: 53600
[2]
  Z-score: -0.1333

## O=C(O)C1=CCCNC1 [Guvacine hydrochloride]
[1]
  Raw Signal: 56288
[3]
  Z-score: 0.2277

## NS(=O)(=O)Cc1noc2ccccc12 [Zonisamide sodium]
[1]
  Raw Signal: 56166
[3]
  Z-score: 0.02763

## NC(N)=NCCCCN=C(N)N [Arcaine sulfate]
[1]
  Raw Signal: 57202
[2]
  Z-score: -0.1252

## CC(C)[N+](C)(CCOC(=O)C1c2ccccc2Oc2ccccc21)C(C)C [Propantheline bromide]
[4]
  Raw Signal: 58434
[5]
  Z-score: 0.4683

## Ic1ccccc1CNC1C2CCN(CC2)C1C(c1ccccc1)c1ccccc1.O=C(O)C(=O)O [L-703,606 oxalate]
[1]
  Raw Signal: 52840
[2]
  Z-score: -0.261

## O=C(c1ccc2c(c1)OCCO2)N1CCCCC1 [CX 546]
[4]
  Raw Signal: 57767
[5]
  Z-score: 0.528

## NCCCCCCCCCCN [1,10-Diaminodecane]
[2]
  Z-score: -0.1121

## CNCC(O)c1ccc(O)cc1 (racemic) [(±)-Synephrine]
[1]
  Raw Signal: 56579
[3]
  Z-score: 0.1079

## COc1ccccc1N1CCN(CCCNc2cc(=O)n(C)c(=O)n2C)CC1 [Urapidil hydrochloride]
[1]
  Raw Signal: 54926
[2]
  Z-score: -0.2133

## NC(=O)c1ncn([C@@H]2O[C@H](CO)[C@@H](O)[C@H]2O)n1 [Ribavirin]
[1]
  Raw Signal: 54731
[2]
  Z-score: -0.2512

## NC/C=C/C(=O)O [(E)-4-amino-2-butenoic acid]
[6]
  Raw Signal: 52183
[7]
  Z-score: -1.009

## CCn1cc(C(=O)O)c(=O)c2cc(F)c(N3CCNC(C)C3)c(F)c21 (stereo not shown) [Lomefloxacin hydrochloride]
[6]
  Raw Signal: 49930
[7]
  Z-score: -0.75

## O=C(O)c1cc(=O)c2c(Cl)cc(Cl)cc2[nH]1 [5,7-Dichlorokynurenic acid]
[6]
  Raw Signal: 49912
[7]
  Z-score: -1.067

## N#C/C(=C\c1ccc(O)c(O)c1)C(=O)N1CCc2ccccc21 [Tyrphostin AG 528]
[4]
  Raw Signal: 58882
[5]
  Z-score: 0.5553

## CN(C)C/C=C(/c1ccc(Br)cc1)c1cccnc1 [Zimelidine dihydrochloride]
[6]
  Raw Signal: 63127
[8]
  Z-score: 1.38

## OC1(c2ccc(Cl)cc2)CCN(Cc2c[nH]c3ccccc23)CC1 [L-741,626]
[6]
  Raw Signal: 51249
[7]
  Z-score: -0.5284

## Nc1nc2ccc(Cl)cc2c2nc(-c3ccco3)nn12 [CGS-15943]
  Raw Signal: 60608
  Z-score: 1.105

## N=C(N)NCCC[C@H](N)C(=O)O [L-Arginine]
[1]
  Raw Signal: 58902
[3]
  Z-score: 0.1742

## CCCc1c(OCCCOc2ccc(OCC(=O)O)cc2)ccc(C(C)=O)c1O [L-165,041]
[4]
  Raw Signal: 57961
[5]
  Z-score: 0.5674

## NC(=O)CN1CCCC1=O [Piracetam]
[4]
  Raw Signal: 58233
[5]
  Z-score: 0.6451

## Cl.O=C(CCCN1CCC2(CC1)C(=O)N(CCc1ccc(N=C=S)cc1)CN2c1ccccc1)c1ccc(F)cc1
[1]
  Raw Signal: 54409
[3]
  Z-score: 0.002603

## CCCCNc1ccc(C(=O)OCCN(C)C)cc1 [Tetracaine hydrochloride]
[1]
  Raw Signal: 56522
[3]
  Z-score: 0.09679

## CN[C@H](CC(=O)O)C(=O)O [N-Methyl-D-aspartic acid]
[4]
  Raw Signal: 57133
[5]
  Z-score: 0.4603

## CCCC(=O)NCCc1c2n(c3ccc(OC)cc13)Cc1ccccc1-2 [IIK7]
[1]
  Raw Signal: 53632
[2]
  Z-score: -0.128

## Oc1ccc(-c2nc(-c3ccncc3)c(-c3ccc(F)cc3)[nH]2)cc1 [SB 202190]
[1]
  Raw Signal: 58086
[3]
  Z-score: 0.03045

## C=C[C@@]1(C)CC(=O)[C@]2(O)[C@@]3(C)[C@@H](O)CCC(C)(C)[C@@H]3[C@H](O)[C@H](OC(C)=O)[C@@]2(C)O1 [Forskolin]
[4]
  Raw Signal: 61603
[5]
  Z-score: 1.307

## COc1cccc(OC)c1OCCNCC1CSc2ccccc2O1 (stereo not shown) [Benoxathian hydrochloride]
[1]
  Raw Signal: 57648
[3]
  Z-score: -0.04669

## CN1C[C@@H](NS(=O)(=O)N(C)C)C[C@@H]2c3cccc4c3c(cn4C)C[C@H]21 [Mesulergine hydrochloride]
[1]
  Raw Signal: 53840
[2]
  Z-score: -0.093

## COc1cc(-c2ccc(=O)[nH]n2)ccc1OC(F)F [Zardaverine]
[1]
  Raw Signal: 57604
[3]
  Z-score: 0.307

## NCCc1c[nH]c2ccccc12 [Tryptamine hydrochloride]
[4]
  Raw Signal: 60596
[5]
  Z-score: 0.4725

## Cc1nc(N=Nc2ccc(S(=O)(=O)O)cc2S(=O)(=O)O)c(COP(=O)(O)O)c(C=O)c1O [PPADS]
[1]
  Raw Signal: 55598
[3]
  Z-score: -0.08273
